Ends that are not written are not given here.
Assays:
TGF-β1 [1] = biological target: T1, TGF-β1 (Homo sapiens, UniProt P01137); test: Western Blot of p-Smad2, Smad2/3 and Smad7 in primary culture of rabbit corneal fibroblasts; assay type: cell-based; design: host or cells: added to a primary culture of rabbit corneal fibroblasts; details: primary culture, TGF-β1 and peptide
Description: Therefore, Western Blot and immunofluorescence studies were conducted to determine, from cells extracted from the in vivo studies, the signaling pathway used by the peptides administered topically. It should be emphasized that said studies were conducted on fibroblasts from rabbit cornea and not from rat cornea. This decision was made due to the difficulty entailed in isolating fibroblasts from rodent eyes.
Since the scientific literature repeatedly describes the TGF-β1 signaling pathways, the decision was made to go into depth in such pathways by means of the techniques described in the methodology section. Said pathways involve the study of the Smad protein family, specifically the study of the isoforms Smad2, 2/3 and 7.
To that end, protein extracts obtained from the primary culture of rabbit fibroblasts were treated with TGF-β1 at concentrations of 0, 3 and 5 ng/ml and, 50 and 200 μg/ml of peptide p17 and p144.
Target sequence in this assay (P01137 279-390 limits assumed, species assumed): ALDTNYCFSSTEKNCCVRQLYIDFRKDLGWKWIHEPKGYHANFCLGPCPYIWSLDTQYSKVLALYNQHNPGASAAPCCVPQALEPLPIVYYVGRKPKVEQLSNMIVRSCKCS

TGF-β1 [2] = biological target: T1, TGF-β1; test: CTGF mRNA expression induced by TGF-β1 in IMR-90 lung fibroblasts, real time RT-PCR; assay type: cell-based; design: purchased R&D Systems; host or cells: added to IMR-90 human lung fibroblasts; details: IMR-90 cells, 5 ng/ml TGF-β1, peptide 100 μg/ml, 6 hours
Description: IMR-90 human lung fibroblasts (ATCC, Manassas, Va.) were cultured in EMEM medium (Cambrex, Belgium) supplemented with 10% fetal bovine serum (FBS), 1 mM sodium pyruvate, 0.1 mM nonessential amino acids, 100 U/ml penicillin and 100 μg/ml streptomycin (Gibco BRL, UK). For experiments, 6×10^4 cells/well were cultured in 6-well plates in 2 ml of medium and when they were 80% confluent, medium was replaced with serum-free EMEM for 48 h to induce quiescence. TGF-β1 (5 ng/ml) and P17 (100 μg/ml) were co-incubated for 90 min at 37° C. to allow binding of both molecules before addition to cell cultures. Quiescent cells were then stimulated with TGF-β1 and/or P17 for up to 6 or 24 h. After these incubation periods, fibroblasts were harvested for gene and protein analysis, respectively.
Total RNA was purified from IMR-90 fibroblasts and whole lung samples using Ultraspec RNA (Biotecx; Houston, Tex.) according to the manufacturer's instructions. […] Expression of human Connective Tissue Growth Factor (CTGF) mRNA induced by TGF-β1 in IMR-90 fibroblasts was measured by real time RT-PCR using an ICycler and IQ SYBR Supermix (Bio-Rad, Italy). […] For in vivo analysis, expression of murine Fibronectin (FN), extra domain A of Fibronectin (EDA-FN), Collagen type I and Interferon gamma (IFN-γ) was measured in lungs, using Histone 3 as internal control. […]
Target sequence in this assay (P01137 279-390 limits assumed): as the sequence (P01137 279-390 limits assumed, species assumed) above

TGF-β1 [3] = biological target: T1, TGF-β1; test: Biopanning of phage-displayed 15-aa peptide library on biotinylated TGF-β1, number of colonies per sequence; assay type: binding; design: purchased Roche; host or cells: added to Mv-1-Lu (CCL-64) mink lung epithelial cells; details: clones carrying the sequence among 108 colonies after the last biopanning cycle; approximate indication of affinity for TGF-β1
From the text: These libraries comprise a plurality of filamentous bacteriophages (M13), each one containing a peptide genetically fused to a protein of the virus envelope—in this case bound to the N-terminal end of envelope protein pIII (FIG. 1). […] In the phage libraries, the sequence encoding the peptide originates from a sequence degenerated in each one of the 15 positions with the 20 natural amino acids, thus allowing the presentation of 1.1×10^12 possible sequences of 15 amino acids in different phages. The physical ratio, 1:1, between the peptide sequence and the DNA encoding it within the bacteriophage allows the selection (from a broad range of variants) of those sequences that specifically bind to TGF-β1. This process is carried out via an in vitro selection protocol known as “biopanning”.
This technique involves incubating a set of phages representative (to practical effects) of all the 15-aa variants, in a plate blocked with streptavidin (10 μg/ml in 0.1 M NaHCO3, during 2 h at room temperature) to which biotinylated TGF-β1 is added. […] TGF-β1 contacts the peptides carried by the phages at a concentration of […]. After about 12 hours incubation, unbound phages are eliminated by 5 washings with PBS/Tween (phosphate buffered saline/polyoxyalkylene derivatives of sorbitan fatty acid esters). […] The eluted phages are then amplified by infection in a bacterial strain (E. coli). The process is repeated three cycles so that an enrichment in the content of phages which specifically bind, and with high affinity, to TGF-β1 is achieved (FIG. 3). […] Thus, the phages selected in each cycle show more and more affinity for TGF-β1. At the end of the process, phages which have been selected for their affinity for TGF-β1, are sequenced by using primers, after isolation by tetracycline resistance of the genetically modified phages after infecting E. coli cells. […] The number of times which a sequence is repeated, corresponding to a 15 amino acids peptide carried by each clone, from the total of sequenced colonies is an indication of the degree of relative affinity of said 15 amino acids sequence for TGF-β1.
The selection of clones, obtained from the “biopanning”, was carried out by selection of the bacterial colonies infected with the phages in the presence of a bacterial antibiotic; the bacteria resistance is acquired by a tetracycline resistance gene encoded by the phage genome. Thus, only those colonies infected with bacteriophages are able to grow. This means that each colony contains the genome of only one phage coding for only one peptide presented in its surface.
A total number of 108 colonies of phage-infected bacteria were obtained from the last selection cycle of “biopanning”. The sequence of the regions coding for the peptides present in the pIII protein was carried out using primers identified with SEQ ID NO: 23. This table also reflects the number of colonies (clones) carrying said sequences.
The number of clones (colonies) of each sequence gives an approximate indication of the degree of affinity of the peptide for TGF-β1, that is, the more colonies the more binding affinity.
Target sequence in this assay (P01137 279-390 limits assumed, species assumed): as above

expression of Smad 2/3 (TGF-β1 [1]): not affected | expression of Smad 7 (TGF-β1 [1]): not modified | CTGF mRNA expression induced by TGF-β1 (TGF-β1 [2]): significantly decreased | No. colonies (TGF-β1 [3]): 3
Sequence: KRIWFIPRSSWYERA [SEQ ID NO: 17, KRIWFIPRSSWYERA]

Reference: patent US8158589B2, “Peptides with the capacity to bind to transforming growth factor β1 (TGF-β1)” (Proyecto Biomedicine Cima, S.L., priority 2003, dated 2012)
